The text below walks through data of ChEMBL document CHEMBL1130866, “Conodiparines A-D, new bisindoles from Tabernaemontana. Reversal of vincristine-resistance with cultured cells” (Bioorg Med Chem Lett, 1998).

≈ marks a conversion by molar mass, not a printed value.

Format in all cases: functional, cell-based
Experiment [1] concerns KB. The experiment can be described thus: Compound was evaluated for its cytotoxicity against vincristine-sensitive KB/S human oral epidermoid carcinoma cell lines.
The subject of experiment [2] is KB. The experiment in a line: Compound was evaluated for its cytotoxicity against vincristine-resistant KB/VJ300 human oral epidermoid carcinoma cell lines.
The test system of experiment [3] is KB. The experiment in a line: Compound was evaluated for its cytotoxicity against vincristine-resistant KB/VJ300 human oral epidermoid carcinoma cell lines, with added vincristine 0.25 ug/mL.

Consider `C/C=C1\CN(C)[C@H]2Cc3c([nH]c4ccccc34)[C@@H](c3cc4c5c([nH]c4cc3OC)[C@]3(C(=O)OC)C[C@@H]4C[C@H]([C@H](C)O)C3N(CC5)C4)C[C@H]1[C@]2(CO)C(=O)OC`, for which the values for the IC50 in the experiment with KB [1], in the experiment with KB [2] and in the experiment with KB [3] were 19.2 µg/mL (≈ 25.6 µM), 13.5 µg/mL (≈ 18 µM) and 1.45 µg/mL (≈ 1.93 µM), respectively.

For `C/C=C1/CN(C)[C@H]2Cc3c([nH]c4ccccc34)[C@@H](c3cc4c5c([nH]c4cc3OC)[C@]3(C(=O)OC)C[C@@H]4C[C@H](C(C)=O)[C@@H]3N(CC5)C4)C[C@H]1[C@]2(CO)C(=O)OC`, the results for the IC50 in the experiment with KB [1], in the experiment on KB [2] and in the experiment on KB [3] were 21.4 µg/mL (≈ 28.6 µM), 17 µg/mL (≈ 22.7 µM) and 5.6 µg/mL (≈ 7.48 µM), respectively.

Regarding `CC[C@]1(O)C[C@H]2CN(CCc3c([nH]c4ccccc34)[C@@](C(=O)OC)(c3cc4c(cc3OC)N(C=O)[C@H]3[C@@](O)(C(=O)OC)[C@H](OC(C)=O)[C@]5(CC)C=CCN6CC[C@]43[C@@H]65)C2)C1` [VINCRISTINE], the IC50 (commonly the point on the concentration scale where inhibition reaches its midpoint) in the experiment with KB [1] is 0.014 µg/mL (≈ 0.017 µM); with KB [2] it was 1.05 µg/mL (≈ 1.27 µM).

As to `C/C=C1/CN(C)[C@H]2Cc3c([nH]c4ccccc34)[C@@H](c3c(OC)ccc4c5c([nH]c34)[C@]3(C(=O)OC)C[C@@H]4C[C@H](C(C)=O)C3N(CC5)C4)C[C@H]1[C@]2(CO)C(=O)OC`, the IC50 amounted to 18.6 µg/mL (≈ 24.8 µM) in the experiment with KB [1], 13.6 µg/mL (≈ 18.2 µM) with KB [2] and 4.6 µg/mL (≈ 6.14 µM) in the experiment with KB [3].

In the case of `C/C=C1/CN(C)[C@H]2Cc3c([nH]c4ccccc34)[C@@H](c3c(OC)ccc4c5c([nH]c34)[C@]3(C(=O)OC)C[C@@H]4C[C@H]([C@H](C)O)C3N(CC5)C4)C[C@H]1[C@]2(CO)C(=O)OC`, the IC50 in the experiment with KB [1] is 20.8 µg/mL (≈ 27.7 µM); with KB [2], 15 µg/mL (≈ 20 µM); in the experiment on KB [3], 2.45 µg/mL (≈ 3.26 µM).
